Data from US20050054006A1, “Combinatorial fluorescent library based on the styryl scaffold” (New York University, priority 2003, published 2005).
Entries after “also recorded” stand apart in the source; their conditions may differ.

Columns and labels:
[1] = system: UACC-62 human melanoma cells; test: Organelle localization in live cells by fluorescence microscopy; details: live UACC-62 cells, fluorescence microscope λex=405, 490, 570 nm; λem>510 nm
[2] = Fluorescence excitation/emission of the styryl dye library compounds; type: physicochemical

| Structure (SMILES) | LOCALIZATION [1] | EM(nm) ([2]; EX/EM peak no. 1) | EX(nm) ([2]; EX/EM peak no. 1) | EM(nm) ([2]; EX/EM peak no. 2) | EX(nm) ([2]; EX/EM peak no. 2) |
| --- | --- | --- | --- | --- | --- |
| COc1ccc(C=Cc2ccc3ccccc3[n+]2C)cc1.[I-] [Compound H10] | MITO | 650 nm | 530 nm |  |  |
| COc1ccc2ccccc2c1C=Cc1cccc(C)[n+]1C.[I-] [Compound L23] | CYTO | 570 nm | 420 nm |  |  |
| C[n+]1ccc(C=Cc2cccc3ccccc23)cc1.[I-] [Compound A32] | MITO and CYTO and VESICLE | 510 nm | 400 nm |  |  |
| Cc1ccnc(-c2cc(/C=C/Cc3ccccc3)cc[n+]2C)c1.[I-] [Compound J1] | MITO | 620 nm | 450 nm |  |  |
| C[n+]1ccc(C=CCc2ccccc2)cc1.[I-] [Compound A1] | CYTO | 490 nm | 390 nm |  |  |
| C[n+]1c(C=Cc2ccc(OCc3ccccc3)c(OCc3ccccc3)c2)ccc2ccccc21.[I-] [Compound H12] | VESICLE | 560 nm | 430 nm |  |  |
| Fc1c(F)c(F)c(C=Cc2cc[n+](C34CC5CC(CC(C5)C3)C4)cc2)c(F)c1F.[Br-] [Compound B31] | MITO | 580 nm | 430 nm |  |  |
| C[n+]1ccc(/C=C/c2c[nH]c3ccccc23)c2ccccc21.[I-] [Compound G24] | MITO | 610 nm | 490 nm |  |  |
| COc1ccc2c(ccc(C=CC=Cc3ccc(N(C)C)cc3)[n+]2C)c1.[I-] [Compound I37] | CYTO | 730 nm | 530 nm |  |  |
| COc1ccc2ccccc2c1C=Cc1ccc2ccccc2[n+]1C.[I-] [Compound H23] | VESICLE; also recorded: NUCLEOLI | 580 nm | 420-480 nm |  |  |
| CN(C)c1ccc(/C=C/c2ccc3ccccc3[n+]2C)cc1.[I-] [Compound H19] | NUCLEOLI | 640 nm | 490(broad) nm |  |  |
| COc1ccc2c(ccc(C=Cc3c(F)c(F)c(F)c(F)c3F)[n+]2C)c1.[I-] [Compound I31] | MITO and NUCLEI and CYTO | 610 nm | 380 nm |  |  |
| CN(C)c1ccc(C=CC=Cc2cc[n+](C34CC5CC(CC(C5)C3)C4)cc2)cc1.[Br-] [Compound B37] | MITO | 700 nm |  |  |  |
| COc1ccc2c(ccc(C=Cc3cccc([N+](=O)[O-])c3)[n+]2C)c1.[I-] [Compound I21] | VESICLE; also recorded: NUCLEOLI | 620 nm | 390 nm |  |  |
| C[n+]1c(/C=C/c2c(F)c(F)c(F)c(F)c2F)ccc2ccccc21.[I-] [Compound H31] | MITO and NUCLEI | 610 nm | 420 nm |  |  |
| COc1ccc2c(ccc(C=Cc3ccc(F)cc3)[n+]2C)c1.[I-] [Compound I30] | MITO | 630 nm |  |  |  |
| COc1ccc2ccccc2c1C=Cc1cccc[n+]1C.[I-] [Compound C23] | CYTO | 530 nm | 420 nm |  |  |
| Cc1ccnc(-c2cc(C=Cc3ccc4ccccc4c3)cc[n+]2C)c1.[I-] [Compound J33] | MITO | 520 nm | 320-450 nm |  |  |
| COc1ccc2ccccc2c1/C=C/c1c(C)ccc[n+]1C.[I-] [Compound D23] | CYTO | 510 nm | 420(broad) nm |  |  |
| CN(C)c1ccc(C=Cc2ccc3ccccc3[n+]2C)c2ccccc12.[I-] [Compound H27] | MITO | 620 nm | 500(broad) nm |  |  |

| Structure (SMILES) | LOCALIZATION [1] | EM(nm) ([2]; EX/EM peak no. 1) | EX(nm) ([2]; EX/EM peak no. 1) | EM(nm) ([2]; EX/EM peak no. 2) | EX(nm) ([2]; EX/EM peak no. 2) |
| --- | --- | --- | --- | --- | --- |
| COc1ccc(C=Cc2cccc(C)[n+]2C)cc1.[I-] [Compound L10] | MITO | 510 nm | 420 nm |  |  |
| Oc1ccc(C=Cc2cc[n+](C34CC5CC(CC(C5)C3)C4)cc2)cc1.[Br-] [Compound B16] | MITO | 590 nm | 400 nm |  |  |
| Cc1ccnc(-c2cc(C=Cc3ccc4c(c3)OCO4)cc[n+]2C)c1.[I-] [Compound J39] | MITO | 560 nm | 350-450 nm |  |  |
| COc1ccc2c(ccc(C=Cc3ccc(-c4ccccc4)cc3)[n+]2C)c1.[I-] [Compound I17] | VESICLE | 510 nm |  |  |  |
| COc1ccc2ccccc2c1C=Cc1cc[n+](C)cc1.[I-] [Compound A23] | CYTO and MITO | 540 nm | 450 (broad) nm |  |  |
| C[n+]1ccc(C=Cc2ccc(OCc3ccccc3)c(OCc3ccccc3)c2)cc1.[I-] [Compound A12] | MITO | 540 nm | 330-460 nm |  |  |
| COc1ccc2c(ccc(C=CCc3ccccc3)[n+]2C)c1.[I-] [Compound I1] | MITO | 630 nm | 460 nm |  |  |
| C[n+]1ccc(C=Cc2c[nH]c3ccccc23)cc1Br.[I-] [Compound F24] | VESICLE | 550 nm | 460 nm |  |  |
| C[n+]1c(C=Cc2ccc(-c3ccccc3)cc2)ccc2ccccc21.[I-] [Compound H17] | VESICLE; also recorded: NUCLEOLI | 650 nm | 430 nm | 540 nm | 420 nm |
| COc1cc(OC)c(OC)cc1C=Cc1cc[n+](C23CC4CC(CC(C4)C2)C3)cc1.[Br-] [Compound B38] | NUCLEI and MITO | 580 nm | 400-480 nm |  |  |
| Cc1cccc(C=Cc2cccc3ccccc23)[n+]1C.[I-] [Compound L32] | MITO | 520 nm | 400(broad) nm |  |  |
| C[n+]1ccc(C=Cc2c(F)c(F)c(F)c(F)c2F)c2ccccc21.[I-] [Compound G31] | MITO and NUCLEOLI | 650 nm | 430 nm |  |  |
| CN(C)c1ccc(/C=C/c2cc[n+](C)c3ccccc23)cc1.[I-] [Compound G19] | MITO | 670 nm | 500 nm |  |  |
| O=Cc1ccccc1C=Cc1cc[n+](C23CC4CC(CC(C4)C2)C3)cc1.[Br-] [Compound B25] | CYTO | 570 nm | 430 nm |  |  |
| Cc1ccnc(-c2cc(/C=C/c3cccc4ccccc34)cc[n+]2C)c1.[I-] [Compound J32] | MITO | 530 nm | 350-450 nm |  |  |
| COc1ccc2c(ccc(/C=C/c3ccc(NC(C)=O)cc3)[n+]2C)c1.[I-] [Compound I18] | NUCLEOLI | 650 nm | 430(broad) nm |  |  |
| COc1ccccc1C=Cc1ccc2ccccc2[n+]1C.[I-] [Compound H9] | MITO | 650 nm |  |  |  |
| Cc1ccnc(-c2cc(/C=C/c3ccccc3Br)cc[n+]2C)c1.[I-] [Compound J3] | MITO | 620 nm | 450 nm |  |  |
| COc1ccc2ccccc2c1C=Cc1cc[n+](C)c2ccccc12.[I-] [Compound G23] | VESICLE | 610 nm | 450-500 nm |  |  |
| C(=Cc1ccc2ccccc2c1)c1cc[n+](C23CC4CC(CC(C4)C2)C3)cc1.[Br-] [Compound B33] | MITO and CYTO and VESICLE | 500 nm | 350-420 nm | 580 nm | 360-400 nm |
